This data set relates to subjects undergoing elective abdominal surgery under general anaesthesia. Briefly: Example 2: placebo/active-controlled clinical study of compound 1 injection for postoperative analgesia (flurbiprofen axetil rescue; nausea and vomiting recorded). Format: in vivo, patients. The procedure:
This study was a multicentre, randomised, double-blind, placebo/active-controlled study. About 387 subjects undergoing elective abdominal surgery under general anaesthesia were planned to be enrolled and randomised to three groups: the compound 1 group (129 subjects), the tramadol group (129 subjects), and the placebo group (129 subjects).
After the end of surgery, MOAA/S scores were assessed every 5 ± 1 min. Once the subjects regained consciousness (defined as the first MOAA/S score of 5), the first resting pain intensity assessment was initiated within 5 min [using the numeric rating scale (NRS), where 0-10 represent varying degrees of pain: 0 represents no pain, higher numbers represent more severe pain, and 10 represents the most severe pain]. It was recommended that the interval between two NRS assessments not exceed 30 min. Within 4 h after the end of surgery, subjects who met all inclusion criteria and none of the exclusion criteria were randomised at a 1 : 1 : 1 ratio into the compound 1 group, the tramadol group or the placebo group. It was recommended that randomisation be performed within 10 min after the first NRS score ≥ 4.
After successful randomisation, to prevent the subjects from enduring pain for a long time, the first dose of compound 1 injection (1 µg/kg/dose), tramadol hydrochloride injection (50 mg/dose), or placebo injection was administered to the subjects by the investigator as soon as possible (recommended within 15 min after successful randomisation). The end time of the first postoperative administration of the study drug was recorded as 0 min. At 8 h (± 15 min) and 16 h (± 15 min) after the end of the first administration, a single corresponding dose of the compound 1 injection, tramadol hydrochloride injection, or placebo injection was administered to the subjects, for a total of three administrations.
Resting NRS score assessments were performed in subjects at 15 min ± 5 min, 30 min ± 5 min, 1 h ± 5 min, 2 h ± 15 min, 4 h ± 15 min, 8 h ± 30 min (within 30 min before the second administration of the study drug), 12 h ± 30 min, 16 h ± 30 min (within 30 min before the third administration of the study drug), 20 h ± 30 min, and 24 h ± 1 h after the end of the first administration of the study drug. The NRS score for resting pain refers to the NRS score assessed when the subject is at rest (e.g., sitting or lying still). If the subject was unconscious at a scheduled NRS assessment time point, the score was recorded as follows: if the previous NRS score was ≥ 2, the current NRS score was recorded as 2; if the previous NRS score was < 2, the current NRS score was recorded as the previous score. Meanwhile, it was documented that the subject was unconscious at the time of assessment.
A flurbiprofen axetil injection was administered via intravenous injection for rescue treatment if the subject complained of pain at any time point after the first administration of the study drug, and the resting pain NRS score was ≥ 4. It was recommended that the time from the subject's NRS assessment to actual administration of flurbiprofen axetil injection be ≤ 30 min; an initial intravenous dose of 50 mg be administered, followed by additional doses as needed. It was also recommended that the interval between two rescue treatments be ≥ 3 h and that the interval between rescue medication and study drug administration be ≥ 1 h. However, rescue treatment could be given at any time for severe pain. […] Rescue details (including resting NRS score before rescue, the time of each use of rescue medication, the dosage of rescue medication, etc.) were recorded truthfully.
Prophylactic antiemetic treatment was prohibited during the study. After the first postoperative administration, the investigator administered antiemetic agents based on the occurrence of nausea and vomiting in the subject, and the dosage of the antiemetic agents was recorded. […]

The mark [1] stands for this setting: Example 2, safety analysis set, N = 129, 1 µg/kg/dose, three administrations.
[2] abbreviates: Example 2, listed as compound 1.
[3] abbreviates: compared with tramadol and placebo.
The mark [4] stands for this setting: within 0-12 h and 0-24 h after the first postoperative administration, compared with tramadol and placebo.
Setting [5] is: within 0-24 h, compared with tramadol and placebo.

Each structure is given as a SMILES string.

On to `CC(=O)N1CC2(CCN(C(=O)[C@@H](CCCCN)NC(=O)[C@@H](CC(C)C)NC(=O)[C@@H](Cc3ccccc3)NC(=O)[C@H](N)Cc3ccccc3)CC2)C1` [Compound 1, (2R)-N-[(1R)-1-(2-acetyl-2,7-diazaspiro[3.5]nonane-7-carbonyl)-5-amino-pentyl]-2-[[(2R)-2-[[(2R)-2-amino-3-phenyl-propionyl]amino]-3-phenylpropionyl]amino]-4-methyl-pentanamide], for which, under “Example 2”, the “Change in incidence of nausea relative to placebo” value was 50% reduction; the “Change in incidence of vomiting relative to placebo” value is reported as 47.9% reduction; the “overall safety and tolerability” value is “good overall safety and tolerability”; the serious adverse events result is on record as “No serious adverse events occurred”. Moreover, under setting [1], the “Nausea (incidence)” value came to 10.1% and the “Vomiting (incidence)” value was determined as 8.5%. Under setting [2], the “Change in incidence of nausea relative to placebo” value amounted to 50 % reduction and the “Change in incidence of vomiting relative to placebo” value is recorded as 47.9 % reduction. Besides, the “SPID0-24 h after the first postoperative administration” value (compared with placebo) is “superior to that in the placebo group”. For the same molecule, under setting [3], the “PID at each time point” value was “comparable to those in the tramadol group and significantly lower than those in the placebo group”; the “SPID0-12 h after the first postoperative administration” value is “comparable to those in the tramadol group and significantly lower than those in the placebo group”; the duration of analgesia entry is “comparable to those in the tramadol group and significantly longer than those in the placebo group”; the “incidence of decreased thyroid-stimulating hormone” value was “slightly higher than that in the tramadol group and the placebo group”. Moreover, under setting [3], the “incidences of nausea and vomiting” value is “lower than those in the tramadol group and the placebo group”; the “subject and investigator satisfaction scores for postoperative analgesia” value was “generally comparable to those in the tramadol group and significantly higher than those in the placebo group”; the “time to the first use of rescue analgesic agents” value is “comparable to those in the tramadol group and significantly longer than those in the placebo group”. In addition, for the setting “compared with tramadol injection (50 mg/dose)”, the “SPID0-24 h after the first postoperative administration” value was “non-inferior to that in the tramadol injection group”. For the same molecule, the “effect on PONV in patients after abdominal surgery” value (summary of both Phase III studies (Example 2)) is on record as “preventive and/or alleviating effect on PONV”. Moreover, under setting [4], the “mean cumulative dosage of rescue analgesic agents” value was “comparable to those in the tramadol group and significantly lower than those in the placebo group”; the “proportion of subjects with NRS scores ≤ 3” value was “generally comparable to those in the tramadol group and significantly higher than those in the placebo group”. Besides, under setting [5], the “cumulative dosage of other antiemetic agents” value is “higher than those in the tramadol group and the placebo group”; the “proportion of subjects using other antiemetic agents” value is “slightly lower than those in the tramadol group and the placebo group”. The “proportion of subjects using tropisetron and the cumulative dosage” value (within 0-24 h after the first administration, compared with tramadol and placebo) was “significantly lower than those in the tramadol group and the placebo group”. Besides, the “proportion of subjects using rescue analgesic agents” value (within 0-24 h after the first postoperative administration, compared with tramadol and placebo) was “comparable to those in the tramadol group and significantly lower than those in the placebo group”.

These data come from EP4792822A1, “USE OF PEPTIDE AMIDE COMPOUND IN PREPARATION OF DRUG FOR […] AND VOMITING” (Haisco Pharmaceutical Group Co., Ltd., priority 2023, dated 2025).
